The results in this text go back to ChEMBL document CHEMBL6096702, “Discovery of a Novel p38α-MK2 Complex Inhibitor as a Potential Choice for Autoimmune Diseases” (J Med Chem, 2025).

One data set is described as follows: Inhibition of N-terminal GST-tagged wildtype human P38alpha (4 to 152 residues) extracted from Escherichia coli/GST-tagged MK2 (unknown origin) assessed as reduction in HSP27 phosphorylation incubated for 2 hrs in presence of ATP and HSP27-FITC peptide by fluorescence polarization based IMAP assay.
Conditions: not given
(In general: Fluorescence polarisation rises when a labelled molecule tumbles more slowly, as on binding a larger partner.)
One may read the IC50 as the concentration that gives 50% inhibition. As to `COc1c(O[C@@H](C)c2ncc(F)cc2F)cc(C)n(-c2c(C)cnc(-c3ccnc(C(C)(C)O)n3)c2F)c1=O`, the IC50 came to 26 nM.

As for `Cc1cnc(-c2cc(C(C)(C)O)ccc2F)c(F)c1-n1c(C)cc(OCc2ncc(F)cc2F)c(Cl)c1=O`, the IC50 turned out to be 17.2 nM.

For `Cc1cnc(-c2cccc(C(C)(C)O)c2)c(F)c1-n1c(C)cc(OCc2ncc(F)cc2F)c(Cl)c1=O`, the IC50 is 0.5 nM.

With `Cc1cnc(-c2cccc(C(C)(C)O)c2)c(F)c1-n1c(C)cc(O[C@@H](C)c2ncc(F)cc2F)c(Cl)c1=O`, the half-inhibitory concentration (IC50) was 1.9 nM.

With `Cc1cnc(-c2ccnc(C(C)(C)O)n2)cc1-c1c(C)c(Cl)c(OCc2ncc(F)cc2F)c[n+]1[O-]`, the IC50 is above 10000 nM.

Consider `C=C(C)c1c(O[C@@H](C)c2ncc(F)cc2F)cc(C)n(-c2c(C)cnc(-c3ccnc(C(C)(C)O)n3)c2F)c1=O`, for which the half-inhibitory concentration (IC50) was above 1000 nM.

As to `Cc1cnc(-c2cccc(C(C)(C)O)c2Cl)c(F)c1-n1c(C)cc(OCc2ncc(F)cc2F)c(Cl)c1=O`, the IC50 turned out to be 6 nM.

`Cc1cnc(-c2cccc(C(C)(C)O)c2)cc1-n1c(C)cc(OCc2ncc(F)cc2F)c(Cl)c1=O`: the IC50 came out at 5.3 nM.

Regarding `Cc1cnc(-c2ccnc(C(C)(C)O)n2)cc1-c1c(F)cc(OCc2ncc(F)cc2F)c(Cl)c1C`, the IC50 is above 10000 nM.

In the case of `Cc1cnc(-c2ccnc(C(C)(C)O)n2)cc1N1CCC(OCc2ncc(F)cc2F)CC1=O` (stereo unspecified), the IC50 is above 10000 nM.

As for `Cc1cnc(-c2ccnc(C(C)(C)O)n2)c(F)c1-n1c(C)cc(O[C@@H](C)c2ncc(F)cc2F)c(C2CC2)c1=O`, the IC50 turned out to be 32 nM.

As to `Cc1cnc(-c2ccnc(C(C)(C)O)n2)c(F)c1-n1c(C)cc(O[C@@H](C)c2ncc(F)cc2F)c(C(F)F)c1=O`, the concentration for half-maximal inhibition (IC50) amounted to 112 nM.

With `Cc1cnc(-c2ccnc(C(C)(C)O)n2)cc1-n1c(C)cc(OC2CN(c3ncc(F)cc3F)C2)c(Cl)c1=O`, the concentration for half-maximal inhibition (IC50) was 284 nM.

As for `Cc1cnc(-c2ccnc(C(C)(C)O)n2)cc1-n1c(C)cc(OCc2ncc(F)cc2F)c(C)c1=O`, the 50% inhibitory concentration (IC50) came to 88 nM.

As to `Cc1cnc(-c2cccc(C(C)(C)O)c2F)c(F)c1-n1c(C)cc(O[C@@H](C)c2ncc(F)cc2F)c(C)c1=O`, the IC50 came to 1.6 nM.

As to `Cc1cnc(-c2ccnc(C(C)(C)O)n2)cc1-n1c(C)cc(COc2ncc(F)cc2F)c(Cl)c1=O`, the 50% inhibitory concentration (IC50) amounted to 1540 nM.

Take `Cc1cnc(-c2cccc(C(C)(C)O)c2F)cc1-n1c(C)cc(O[C@@H](C)c2ncc(F)cc2F)c(Cl)c1=O`: the IC50 was determined as 1.6 nM.

On to `Cc1cnc(-c2cccc(C(C)(C)O)c2F)c(F)c1-n1c(C)cc(O[C@@H](C)c2ncc(F)cc2F)c(Cl)c1=O`, for which the IC50 stood at 0.7 nM.

With `Cc1cnc(-c2cc(C(C)(C)O)ccc2Cl)c(F)c1-n1c(C)cc(OCc2ncc(F)cc2F)c(Cl)c1=O`, the IC50 came to 19 nM.

Consider `Cc1cc(OCc2ncc(F)cc2F)c(Cl)c(=O)n1C1=CCCN(c2ccnc(C(C)(C)O)n2)C1`, for which the concentration for half-maximal inhibition (IC50) was above 10000 nM.

As to `Cc1cnc(-c2ccnc(C(C)(C)O)n2)c(F)c1-n1c(C)cc(O[C@@H](C)c2ncc(F)cc2F)c(C=O)c1=O`, the IC50 came to 143 nM.

The nature of the next data set: Inhibition of N-terminal GST-tagged wildtype human P38alpha (4 to 152 residues) extracted from Escherichia coli/GST-tagged PRAK (unknown origin) assessed as reduction in HSP27 phosphorylation incubated for 2 hrs in presence of ATP and HSP27-FITC peptide by fluorescence polarization based IMAP assay.
Conditions: not given
Take `Cc1cnc(-c2cc(C(C)(C)O)ccc2F)c(F)c1-n1c(C)cc(OCc2ncc(F)cc2F)c(Cl)c1=O`: the IC50 was 2.9 nM.

Turning to `Cc1cnc(-c2cccc(C(C)(C)O)c2)c(F)c1-n1c(C)cc(OCc2ncc(F)cc2F)c(Cl)c1=O`, the IC50 was 506 nM.

For the molecule `Cc1cnc(-c2cccc(C(C)(C)O)c2)c(F)c1-n1c(C)cc(O[C@@H](C)c2ncc(F)cc2F)c(Cl)c1=O`, the 50% inhibitory concentration (IC50) is 3780 nM.

With `Cc1cnc(-c2cccc(C(C)(C)O)c2)cc1-n1c(C)cc(OCc2ncc(F)cc2F)c(Cl)c1=O`, the IC50 turned out to be 1950 nM.

Take `Cc1cnc(-c2cccc(C(C)(C)O)c2F)c(F)c1-n1c(C)cc(O[C@@H](C)c2ncc(F)cc2F)c(C)c1=O`: the concentration for half-maximal inhibition (IC50) is 394 nM.

For `Cc1cnc(-c2cccc(C(C)(C)O)c2F)cc1-n1c(C)cc(O[C@@H](C)c2ncc(F)cc2F)c(Cl)c1=O`, the IC50 was determined as 504 nM.

In the case of `Cc1cnc(-c2cccc(C(C)(C)O)c2F)c(F)c1-n1c(C)cc(O[C@@H](C)c2ncc(F)cc2F)c(Cl)c1=O`, the IC50 was 23 nM.

The next data set in a line: Selectivity ratio of IC50 for inhibition of N-terminal GST-tagged wildtype human P38alpha (4 to 152 residues) extracted from Escherichia coli/GST-tagged PRAK (unknown origin) to IC50 for inhibition of N-terminal GST-tagged wildtype human P38alpha (4 to 152 residues) extracted from Escherichia coli/GST-tagged MK2 (unknown origin).
Conditions: not given
Consider `Cc1cnc(-c2cc(C(C)(C)O)ccc2F)c(F)c1-n1c(C)cc(OCc2ncc(F)cc2F)c(Cl)c1=O`, for which the Ratio IC50 is 0.2.

On to `Cc1cnc(-c2cccc(C(C)(C)O)c2)c(F)c1-n1c(C)cc(OCc2ncc(F)cc2F)c(Cl)c1=O`, for which the Ratio IC50 turned out to be 1010.

As for `Cc1cnc(-c2cccc(C(C)(C)O)c2)c(F)c1-n1c(C)cc(O[C@@H](C)c2ncc(F)cc2F)c(Cl)c1=O`, the Ratio IC50 worked out at 1990.

On to `Cc1cnc(-c2cccc(C(C)(C)O)c2)cc1-n1c(C)cc(OCc2ncc(F)cc2F)c(Cl)c1=O`, for which the Ratio IC50 came to 368.

On to `Cc1cnc(-c2cccc(C(C)(C)O)c2F)c(F)c1-n1c(C)cc(O[C@@H](C)c2ncc(F)cc2F)c(C)c1=O`, for which the Ratio IC50 is 246.

In the case of `Cc1cnc(-c2cccc(C(C)(C)O)c2F)cc1-n1c(C)cc(O[C@@H](C)c2ncc(F)cc2F)c(Cl)c1=O`, the Ratio IC50 is 315.

For `Cc1cnc(-c2cccc(C(C)(C)O)c2F)c(F)c1-n1c(C)cc(O[C@@H](C)c2ncc(F)cc2F)c(Cl)c1=O`, the Ratio IC50 amounted to 33.

Another data set is described as follows: AUClast in male Sprague-Dawley rat at 1 mg/kg, iv measured after 24 hrs by LC-MS/MS analysis. The class given is ADME, organism-based. The following applies: in vivo.
The AUC(0-t) is exposure summed from dosing to a finite time, without extrapolation to infinity. A higher AUC(0-t) goes with more exposure. Consider `Cc1cnc(-c2cccc(C(C)(C)O)c2)c(F)c1-n1c(C)cc(OCc2ncc(F)cc2F)c(Cl)c1=O`, for which the AUC(0-t) at 24 h was found to be 1800 ng·h/mL.

The molecule `Cc1cnc(-c2cccc(C(C)(C)O)c2)c(F)c1-n1c(C)cc(O[C@@H](C)c2ncc(F)cc2F)c(Cl)c1=O` displayed an area under the curve AUC(0-t) at 24 h of 3230 ng·h/mL.

The next data set is described as follows: Clearance in male Sprague-Dawley rat at 1 mg/kg, iv measured after 24 hrs by LC-MS/MS analysis. Conditions: in vivo. The format is ADME, organism-based.
As a reminder, the clearance is the volume of plasma or blood freed of the substance per unit of time. Read a high clearance as efficient removal. On to `Cc1cnc(-c2cccc(C(C)(C)O)c2)c(F)c1-n1c(C)cc(OCc2ncc(F)cc2F)c(Cl)c1=O`, for which the clearance was found to be 10 mL/min/kg.

`Cc1cnc(-c2cccc(C(C)(C)O)c2)c(F)c1-n1c(C)cc(O[C@@H](C)c2ncc(F)cc2F)c(Cl)c1=O` gave a clearance of 5 mL/min/kg.

The next data set can be described thus: Volume of distribution at steady state in male Sprague-Dawley rat at 1 mg/kg, iv measured after 24 hrs by LC-MS/MS analysis. The format is ADME, organism-based. The following applies: in vivo, read-out: Vdss.
Turning to `Cc1cnc(-c2cccc(C(C)(C)O)c2)c(F)c1-n1c(C)cc(OCc2ncc(F)cc2F)c(Cl)c1=O`, the Vd turned out to be 0.7 L/kg.

For the molecule `Cc1cnc(-c2cccc(C(C)(C)O)c2)c(F)c1-n1c(C)cc(O[C@@H](C)c2ncc(F)cc2F)c(Cl)c1=O`, the Vd was 0.9 L/kg.

A further data set in a line: Half-life in male Sprague-Dawley rat at 1 mg/kg, iv measured after 24 hrs by LC-MS/MS analysis. The format is ADME, organism-based. Conditions: in vivo.
Broadly, the half-life is the time in which the quantity being followed falls by half. For `Cc1cnc(-c2cccc(C(C)(C)O)c2)c(F)c1-n1c(C)cc(OCc2ncc(F)cc2F)c(Cl)c1=O`, the half-life is 1.5 h.

Consider `Cc1cnc(-c2cccc(C(C)(C)O)c2)c(F)c1-n1c(C)cc(O[C@@H](C)c2ncc(F)cc2F)c(Cl)c1=O`, for which the half-life was 2.2 h.

A short description of the next data set: MRT in male Sprague-Dawley rat at 1 mg/kg, iv measured after 24 hrs by LC-MS/MS analysis. The format is ADME, organism-based. Conditions: in vivo.
Broadly, the MRT is a mean duration of stay, worked out from the concentration-time curve. Regarding `Cc1cnc(-c2cccc(C(C)(C)O)c2)c(F)c1-n1c(C)cc(OCc2ncc(F)cc2F)c(Cl)c1=O`, the MRT came to 1.2 h.

In the case of `Cc1cnc(-c2cccc(C(C)(C)O)c2)c(F)c1-n1c(C)cc(O[C@@H](C)c2ncc(F)cc2F)c(Cl)c1=O`, the MRT was 3 h.

Another data set in a line: Cmax in male Sprague-Dawley rat at 2 mg/kg, po measured after 24 hrs by LC-MS/MS analysis. The format is ADME, organism-based. Conditions: in vivo.
Broadly, the Cmax is the maximum level reached in the sampled fluid or tissue. Consider `Cc1cnc(-c2cccc(C(C)(C)O)c2)c(F)c1-n1c(C)cc(OCc2ncc(F)cc2F)c(Cl)c1=O`, for which the highest level (Cmax) was 738 ng/mL.

In turn, `Cc1cnc(-c2cccc(C(C)(C)O)c2)c(F)c1-n1c(C)cc(O[C@@H](C)c2ncc(F)cc2F)c(Cl)c1=O` came in with a Cmax of 1030 ng/mL.

Another data set is described as follows: AUClast in male Sprague-Dawley rat at 2 mg/kg, po measured after 24 hrs by LC-MS/MS analysis. The class given is ADME, organism-based. Conditions: in vivo.
The molecule `Cc1cnc(-c2cccc(C(C)(C)O)c2)c(F)c1-n1c(C)cc(OCc2ncc(F)cc2F)c(Cl)c1=O` showed an exposure AUC(0-t) at 24 h of 1980 ng·h/mL.

With `Cc1cnc(-c2cccc(C(C)(C)O)c2)c(F)c1-n1c(C)cc(O[C@@H](C)c2ncc(F)cc2F)c(Cl)c1=O`, the AUC(0-t) at 24 h amounted to 8050 ng·h/mL.

Another data set can be described thus: Oral bioavailability in male Sprague-Dawley rat at 2 mg/kg measured after 24 hrs by LC-MS/MS analysis. The format is ADME, organism-based. Conditions: in vivo.
Regarding `Cc1cnc(-c2cccc(C(C)(C)O)c2)c(F)c1-n1c(C)cc(OCc2ncc(F)cc2F)c(Cl)c1=O`, the bioavailability was determined as 55%.

For `Cc1cnc(-c2cccc(C(C)(C)O)c2)c(F)c1-n1c(C)cc(O[C@@H](C)c2ncc(F)cc2F)c(Cl)c1=O`, the bioavailability was determined as 125%.
